# Test results published in ChEMBL document CHEMBL1201862, “PubChem BioAssay data set” (2004).
# The source made the active and inactive calls. For most assays here, no stated cut-off is given here; in the data, actives have a measured AC50 and inactives only a lower limit.
# How the values were obtained:
# [1] = Fluorescence-based cell-based high throughput dose response assay for inhibitors of the interaction of nucleotide-binding oligomerization domain containing 2 (NOD2) and the receptor-interacting serine-threonine kinase 2 (RIPK2).; assay type: functional; settings: Homo sapiens
# Protein skinhead-1 = biological target: T1, Protein skinhead-1 (Caenorhabditis elegans, UniProt P34707); assay type: functional
# T1 sequence (P34707 whole entry): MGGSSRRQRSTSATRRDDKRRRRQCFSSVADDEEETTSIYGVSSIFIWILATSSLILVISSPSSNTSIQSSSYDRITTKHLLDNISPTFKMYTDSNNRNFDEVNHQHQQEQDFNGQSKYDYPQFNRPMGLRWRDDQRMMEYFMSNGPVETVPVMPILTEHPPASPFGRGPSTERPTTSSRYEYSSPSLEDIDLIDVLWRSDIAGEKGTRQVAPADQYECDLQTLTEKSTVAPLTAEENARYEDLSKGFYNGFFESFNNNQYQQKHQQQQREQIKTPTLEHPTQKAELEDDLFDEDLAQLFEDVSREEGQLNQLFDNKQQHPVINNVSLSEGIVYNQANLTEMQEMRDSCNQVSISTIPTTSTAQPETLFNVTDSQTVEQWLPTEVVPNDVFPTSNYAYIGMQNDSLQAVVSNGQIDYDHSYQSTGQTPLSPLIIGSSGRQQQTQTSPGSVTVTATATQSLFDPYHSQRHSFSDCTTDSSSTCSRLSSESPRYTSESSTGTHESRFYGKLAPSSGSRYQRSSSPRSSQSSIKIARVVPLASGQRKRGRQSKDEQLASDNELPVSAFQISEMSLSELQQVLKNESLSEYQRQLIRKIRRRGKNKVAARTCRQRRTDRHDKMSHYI
# [2] = A549 cell cytotoxicity, dose response, cytotoxicity control, plate reader, cherry-pick, antagonist series (AID 743412); assay type: functional, cell-based
# [3] = loss of viability in HepG2 cells – cell-based, CellTiter-Glo, cherry-picked, cytotoxicity control for Shn3 inhibitor project, dose response (AID 624134); assay type: functional
# [4] = blockers of bursicon-stimulated LGR2 cAMP reporter – cell-based, HEK293, CRE-luciferase reporter, cherry pick, set 2, dose response (AID 743343); assay type: functional;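 further: transfected cells were stimulated with diluted bursicon conditioned medium after compound addition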
# [5] = toxicity toward HepG2 liver cells – cell-based, plate reader, cherry-pick, antagonist series, cytotoxicity control, dose response (AID 743416); assay type: functional
# [6] = blockade of melanocortin 4 receptor signaling – cell-based, plate reader, cherry pick, counter-screen for LGR2 antagonist project, dose response (AID 743444); assay type: functional;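 further: transfected HEK 293 cells stimulated with alpha-MSH peptide; potency of inhibitors of the alpha-MSH evoked signal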
# [7] = non-specific 3'UTR reporter inhibition in Clone20-Shn3RL – cell-based, Renilla luciferase, cherry-picked, counter-screen for Shn3 inhibitor project, dose response (AID 624133); assay type: functional
# Beta Lactamase = Beta Lactamase (Pseudomonas aeruginosa, UniProt Q932Y6); assay: BLA reporter interference, concentration series – BLA reporter cells, FRET fluorescence, artefact control for NOD2-RIPK2 interaction inhibitor project, dose response (AID 651552); assay type: functional, cell-based
# [8] = viability loss in HEK293 cells – cell-based, plate reader, cherry-picked samples, cytotoxicity control, dose response (AID 743446); assay type: functional
# [9] = reduction of Shn3 3'UTR-driven luciferase in osteoblasts – cell-based, Clone20 osteoblasts, firefly luciferase, cherry-picked, dose response (AID 624132); assay type: functional;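 further: firefly luciferase luminescence from reporter carrying the Shn3 3'UTR in osteoblasts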
# [10] = inhibitors acting on PAX2 in cells – cell-based, plate reader, dry powder samples, selectivity assay for PAX8 inhibitor project, dose response (AID 743048); assay type: functional;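 further: HEK293 cells carrying a WT1 promoter luciferase reporter driven by expressed Pax2; potency is for inhibition of Pax2 driven reporter signal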
# [11] = PAX8-dependent cell viability loss – plate reader, dry powder, dose response (AID 743049); assay type: functional, cell-based
# [12] = OVCAR4 cell viability loss – plate reader, dry powder, SA11, cytotoxicity control for PAX8 inhibitor project, dose response (AID 743150); assay type: functional, cell-based; settings: OVCAR-4
# [13] = IGROV1 cell killing – plate reader, dry powder samples, PAX8 inhibitor project, dose response (AID 743043); assay type: functional, cell-based; settings: IGROV-1
# [14] = PAX5 cellular inhibition readout – cell-based, plate reader, dry powder samples, selectivity assay for PAX8 inhibitor project, dose response (AID 743047); assay type: functional;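 further: HEK293 cells carrying a Pax5 driven CD19 promoter luciferase reporter; potency of inhibitors that lower reporter luminescence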
# [15] = OV-90 cell viability loss – plate reader, dry powder, SA8, PAX8 inhibitor project, dose response (AID 743149); assay type: functional, cell-based
# [16] = COV434 cell viability loss – plate reader, dry powder, SA7, cytotoxicity control for PAX8 inhibitor project, dose response (AID 743145); assay type: functional, cell-based
# Paired box protein Pax-8 = Paired box protein Pax-8 (Homo sapiens, UniProt Q06710); assay: PAX8 transcriptional activity inhibition in RMG-I – RMG-I cells, luciferase, cherry-pick, dose response (AID 687027); assay type: functional, cell-based;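 further: luciferase reporter driven by Pax8 target thyroperoxidase promoter measured by SteadyGlo luminescence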
# [17] = COV362 cell viability loss – plate reader, dry powder, SA12, cytotoxicity control for PAX8 inhibitor project, dose response (AID 743144); assay type: functional, cell-based
# [18] = viability loss in HepG2 liver cells – cell-based, ATP luminescence, cherry-pick, set 6, cytotoxicity control, dose response (AID 1053125); assay type: functional
# cells [19] = assay: cells
# cells [20] = settings: A549
# cells [21] = settings: HEK293;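 further: cells exposed to compound for 48 hours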
# HEK293 = assay: viability loss in HEK293T cells – cell-based, ATP luminescence, cherry-pick samples, cytotoxicity control, dose response (AID 687005); assay type: functional; settings: Homo sapiens;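 further: cells exposed to compound for 48 hours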
# [22] = fungal growth arrest, C. neoformans – Alamar Blue, cherry-picks, dose response (AID 686998); assay type: functional, organism-based
# [23] = HEK293 Cytotoxicity Assay Measured in Cell-Based System Using Plate Reader - 7071-01_Inhibitor_Dose_CherryPick_Activity_Set2.; assay type: functional
# Sequence of Paired box protein Pax-8 (Q06710 whole entry): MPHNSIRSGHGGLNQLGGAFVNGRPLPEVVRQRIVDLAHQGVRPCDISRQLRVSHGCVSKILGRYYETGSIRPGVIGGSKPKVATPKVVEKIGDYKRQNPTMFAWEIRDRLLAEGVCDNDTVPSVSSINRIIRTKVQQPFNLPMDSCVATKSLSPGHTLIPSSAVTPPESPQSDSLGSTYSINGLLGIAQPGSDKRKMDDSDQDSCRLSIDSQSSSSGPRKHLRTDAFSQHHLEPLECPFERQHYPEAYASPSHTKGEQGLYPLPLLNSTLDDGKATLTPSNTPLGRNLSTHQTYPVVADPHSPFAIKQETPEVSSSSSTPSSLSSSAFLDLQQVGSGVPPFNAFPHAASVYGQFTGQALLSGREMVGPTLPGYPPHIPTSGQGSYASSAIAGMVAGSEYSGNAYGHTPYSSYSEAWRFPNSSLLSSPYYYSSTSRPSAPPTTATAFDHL
# Sequence of Beta Lactamase (Q932Y6 whole entry): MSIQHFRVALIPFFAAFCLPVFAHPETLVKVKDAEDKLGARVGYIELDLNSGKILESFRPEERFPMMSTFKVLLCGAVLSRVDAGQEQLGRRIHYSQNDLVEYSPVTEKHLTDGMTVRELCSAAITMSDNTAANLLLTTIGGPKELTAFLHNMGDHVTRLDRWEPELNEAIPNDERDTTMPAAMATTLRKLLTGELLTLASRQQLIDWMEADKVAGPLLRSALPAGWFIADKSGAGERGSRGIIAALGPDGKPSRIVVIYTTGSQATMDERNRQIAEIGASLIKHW
smiles,measurement,setting,value
O=C1NC2C(=CC(O)C(O)C2O)c2cc3c(c(O)c21)OCO3 (configuration not stated),IC50,[1],49.7 µM (inactive)
same,IC50,Protein skinhead-1,24 µM (active)
same,AC50,[2],0.17 µM (active)
same,AC50,[3],59 µM (active)
same,AC50,[4],0.138 µM (active)
same,AC50,[5],0.218 µM (active)
same,AC50,[6],0.161 µM (active)
same,AC50,[7],0.431 µM (active)
same,IC50,Beta Lactamase,49.7 µM (inactive)
same,AC50,[8],0.167 µM (active)
same,AC50,[9],< 0.26 µM (active)
C[C@@H]1CN([C@H](C)CO)C(=O)c2cc(NC(=O)CCCCCC(=O)Nc3ccccc3N)ccc2O[C@@H]1CN(C)Cc1ccc(C(F)(F)F)cc1,AC50,[10],> 32 µM (inactive)
same,AC50,[11],10.1 µM (active)
same,AC50,[12],31.2 µM (active)
same,AC50,[13],39 µM (active)
same,AC50,[14],30 µM (active)
same,AC50,[15],> 70 µM (inactive)
same,AC50,[16],> 70 µM (inactive)
same,AC50,Paired box protein Pax-8,6.43 µM (active)
same,AC50,[17],32.9 µM (active)
Nc1c(C(=O)NCc2ccccc2)c2nc3ccccc3nc2n1CCCN1CCOCC1,AC50,[18],17.1 µM (active)
same,AC50,cells [19],32.1 µM (active)
same,AC50,cells [20],15.6 µM (active)
same,AC50,cells [21],25.2 µM (active)
COC(=O)C1=C(C)N(C)C(S)=NC1c1ccccc1 (configuration not stated),AC50,HEK293,> 92 µM (inactive)
same,AC50,[22],120 µM (active)
same,AC50,[23],> 92 µM (inactive)
